Values quoted from earlier work in patent US20200155636A1, “Medicament and Beverage for Improving Joint and Bone Diseases” (priority 2017, published 2020).

Settings: oral application

For hyaluronic acid, the “stability against gastric acid” value is listed as “survives the gastric acid” and the absorption (small intestine) is listed as “absorbed in the small intestine”.
